Measurements from paper PMC12281475, “Mediator Kinase Inhibitor Selectivity and Activity in Colorectal Cancer” (ACS Chemical Biology, 2025).

Tested on: COLO205 cells
Assay: Phospho-proteome profiling (CDK-motif antibody enrichment, LC-MS/MS)
Assay type: cell-based, human
Conditions: 6 H
Excerpt: We phospho-proteome profiled COLO205 cells to identify Mediator kinase substrates following chemical inhibition of Mediator kinase activity. Given the confirmed CDK8/19 selectivity of our compounds in binding and enzymatic activity assays, we employed a pool of antibodies selective for the proline-rich motifs phosphorylated by the CDK family to enrich potential CDK8/19 substrates for LC-MS/MS analysis.
Adherent COLO205 cells were lysed with a urea buffer, lysates were reduced with DTT, alkylated with iodoacetimide and digested with trypsin-tosylphenylalanyl chloromethyl ketone. Digested peptides were immunoprecipitated using a pool of motif antibodies from Cell Signaling Technologies (US) comprising: phospho-MAPK substrate (PXS*P or S*PXR/K, #2325, RRID:AB_331820), phospho-CDKs substrate ((K/H)-S*P, #2324; RRID:AB_2244779), phospho-PLK binding motif (ST*P, #5243; RRID:AB_10891778) and phospho-tPE motif (T*PE, #3004; RRID:AB_10890649)-of phospho-MAPK (2325), phospho-CDK (2324), phospho-PLK (5243) and phospho-tPE (C3004) motif-recognizing antibodies immobilized onto protein A/G beads. Immunoprecipitated peptides were analyzed using an LTQ-Orbitrap-Velos. Sequences were assigned to the MS/MS spectra and evaluated using SEQUEST 3G and SORCERER 2 (Sage-N Research v4.0, Milpitas). Quantitative data was evaluated and clustered in Spotfire Decision Site (www.spotfire.tibco.com) and normalized using quartile normalization. Functional annotation and pathway analysis used DAVID (https://david.ncifcrf.gov/). […]
Phospho-proteome analyses
Adherent COLO205 cells were washed with PBS and cells lysed using urea lysis buffer (9 M Urea, 20 mM HEPES, pH 8.0, 1 mM beta-glycerophosphate, 1 mM sodium vanadate, 2.5 mM sodium pyrophosphate) and stored at -80 °C prior to analysis. The supernatants were reduced with 100 mM DTT for 30 minutes at 55 °C, followed by alkylation with 50 mM iodoacetimide for 15 minutes at ambient temperature in the dark.
The samples were diluted in 20 mM HEPES, pH 8.0 and digested overnight with 10 ug/mL trypsin-tosylphenylalanyl chloromethyl ketone in 1 mM HCl. Digested peptides were acidified with 1% formic acid and then desalted over 360-mg SEP PAK C18 columns (Waters, UK). Peptides were eluted with 40% acetonitrile in 0.125% formic acid, dried under a vacuum and the lyophilised peptides used for immunoprecipitation.
A pool of motif antibodies from Cell Signaling Technologies (US) comprising: phospho-MAPK substrate (PXS*P or S*PXR/K, #2325, RRID:AB_331820), phospho-CDKs substrate ((K/H)S*P, #2324; RRID:AB_2244779), phospho-PLK binding motif (ST*P, […]
RRID:AB_10890649), were immobilised onto protein A/G beads overnight at 4 °C. The lyophilised peptides were resuspended in MOPS buffer (50 mM MOPS, pH 7.2, 10 mM KH2PO4, 50 mM NaCl) and centrifuged for 5 mins at 13,500 rpm in an Eppendorf benchtop microcentrifuge. The supernatants were incubated with the motif-bound beads for 2.5 hours at 4 °C . The beads were harvested by centrifugation at 4000 rpm in an Eppendorf benchtop microcentrifuge for 5 mins, washed with MOPS buffer twice and washed again 5 times with deionised water. The peptides were eluted off the beads using 0.125% formic acid, were desalted and dried under a vacuum. The lyophilised immunoprecipitated peptides were resuspended in 0.125% formic acid and separated on a capillary column packed with Magic C18 AQ reversed-phase resin.
Peptides were eluted using a 72-minute linear gradient of acetonitrile in 0.125% formic acid delivered at 280nL/min. Samples were analysed using an LTQ-Orbitrap-Velos.
MS Parameter Settings were: MS Run Time 96 min, MS1 Scan Range (300.0 – 1500.00), Top 20 MS/MS (Min Signal 500, Isolation Width 2.0, Normalized Coll.
Charge State Rejection Enabled, Charge State 1+ Rejected, Dynamic Exclusion Enabled, Repeat Count 1, Repeat Duration 35.0, Exclusion List Size 500, Exclusion Duration 40.0, Exclusion Mass Width Relative to Mass, Exclusion Mass Width 10ppm). […]

[1] = FAM122A peptide 69 - hglllpaSpvr - 79
[2] = FBLIM1 peptide 40 - grpweapapmkTpeaglagrpspwttpgr - 68
[3] = FBXW9 peptide 43 - sglafsrpsqlsTpaaSpSasepr - 66
[4] = FBXW9 peptide 48 - srpsqlStpaaSpsasepr - 66
[5] = FOSL1 peptide 235 - ftypStpepcasahr - 249
[6] = GATA6 peptide 26 - afparepStppSpisssssscsr - 48
[7] = GOLGA4 peptide 7 - qkiseeqqqlqqalapaqassnSStptrm#rsr - 39
[8] = HCFC1 peptide 1483 - avttvtqSTpvpgpsvpppeelqvSpgpr - 1511
[9] = HMCES peptide 152 - sgsigaadSpenwek - 166
[10] = HSPA12A peptide 99 - tpttillTper - 109
[11] = INCENP peptide 259 - iaqvSpgprdSpafpdSpwrer - 280
[12] = KANSL1 peptide 955 - ttpqlgSanpSTpqpaSpdvssshslseyShgqSpr - 989
[13] = KIAA1522 peptide 509/569 - rpprSper - 517/576
[14] = KLF6 peptide 140 - lsssvtStppsSpelsrepsqlwgcvpgelpSpgkvr - 176
[15] = KMT2A peptide 3025 - nssTpglqvpvsptvpiqnqk - 3045
[16] = L3MBTL2 peptide 60 - eagelpTSplhllSpgTpr - 78
[17] = LARP4B peptide 725 - rlSreqSTppkSpq - 738
[18] = LASP1 peptide 60 - qsftmvadTpenlr - 73
[19] = LCOR peptide 1212 - arpstkTpessaaqr - 1226
[20] = LIMD1 peptide 190 - wgdkpgvSpSiglsvgsgwpSspgsdpplpkpcgdhplnhr - 230
[21] = LMNA peptide 12 - sgaqaSstplSptr - 25
[22] = LMO7 peptide 595/929 - YngdvedikrTpnnvvSTpapSpdasqlasslssqk - 630/964
[23] = LSM14B peptide 85 - aqhtlpqdpaivqsslgsasaSpfqphvpYSpfr - 118
[24] = MAP7 peptide 668 - vtvesTpdlekqpnengvsvqnenfeeiinlpigskpsr - 706
[25] = MCM4 peptide 38 - rgedststgelqpmptSpgvdlqSpaaqdvl - 68

## Cn1cc(-c2ccc(-c3cncc(Cl)c3N3CCC4(CCNC4=O)CC3)cc2)cn1 [CCT251545]
EZH2 peptide 46 - grlpnnssrpstpTinvlesk - 376
  MEAN MS SIGNAL CMPD 1 6 H: 31995
[1]
  CMPD 1/DMSO: 2.184
  MEAN MS SIGNAL CMPD 1 6 H: 196079
[2]
  CMPD 1/DMSO: 0.573
  MEAN MS SIGNAL CMPD 1 6 H: 86595
[3]
  CMPD 1/DMSO: 0.530
  MEAN MS SIGNAL CMPD 1 6 H: 311610
[4]
  CMPD 1/DMSO: 0.400
  MEAN MS SIGNAL CMPD 1 6 H: 48006
[5]
  CMPD 1/DMSO: 0.504
  MEAN MS SIGNAL CMPD 1 6 H: 66830
[6]
  CMPD 1/DMSO: 2.355
  MEAN MS SIGNAL CMPD 1 6 H: 187382
[7]
  CMPD 1/DMSO: 2.322
  MEAN MS SIGNAL CMPD 1 6 H: 104624
[8]
  CMPD 1/DMSO: 0.405
  MEAN MS SIGNAL CMPD 1 6 H: 16700
[9]
  CMPD 1/DMSO: 0.453
  MEAN MS SIGNAL CMPD 1 6 H: 63819
[10]
  CMPD 1/DMSO: 0.556
  MEAN MS SIGNAL CMPD 1 6 H: 24367
[11]
  CMPD 1/DMSO: 0.465
  MEAN MS SIGNAL CMPD 1 6 H: 323217
[12]
  CMPD 1/DMSO: 0.484
  MEAN MS SIGNAL CMPD 1 6 H: 12101
[13]
  CMPD 1/DMSO: 1.797
  MEAN MS SIGNAL CMPD 1 6 H: 115710
[14]
  CMPD 1/DMSO: 0.607
  MEAN MS SIGNAL CMPD 1 6 H: 32118
[15]
  CMPD 1/DMSO: 2.063
  MEAN MS SIGNAL CMPD 1 6 H: 28229
[16]
  CMPD 1/DMSO: 0.490
  MEAN MS SIGNAL CMPD 1 6 H: 91427
[17]
  CMPD 1/DMSO: 2.299
  MEAN MS SIGNAL CMPD 1 6 H: 120169
[18]
  CMPD 1/DMSO: 0.584
  MEAN MS SIGNAL CMPD 1 6 H: 786663
[19]
  CMPD 1/DMSO: 0.545
  MEAN MS SIGNAL CMPD 1 6 H: 120796
[20]
  CMPD 1/DMSO: 0.471
  MEAN MS SIGNAL CMPD 1 6 H: 25519
[21]
  CMPD 1/DMSO: 0.517
  MEAN MS SIGNAL CMPD 1 6 H: 46469
[22]
  CMPD 1/DMSO: 0.463
  MEAN MS SIGNAL CMPD 1 6 H: 25654
[23]
  CMPD 1/DMSO: 0.523
  MEAN MS SIGNAL CMPD 1 6 H: 38083
[24]
  CMPD 1/DMSO: 0.544
  MEAN MS SIGNAL CMPD 1 6 H: 159179
[25]
  CMPD 1/DMSO: 0.432
  MEAN MS SIGNAL CMPD 1 6 H: 77526
MCM4 peptide 69 - fSsppqmhssaipldfdvSsplTygtpssr - 98
  CMPD 1/DMSO: 0.605
